Legend:
[1] = test system: most fungi; conditions: cited from earlier work
[2] = test system: mycelium of most mushroom species, e.g. A. bisporus; conditions: cited from earlier work
[3] = test system: Mycogone pernicosa; experiment: Mould growth on Potato Dextrose Agar plates containing natamycin; assay type: cell-based; conditions: 5 days at 25° C.
Procedure: (§1) Each of these organisms were field isolates.
(§2) Potato Dextrose Agar plates containing 0, 10 and 20 ppm of natamycin and mould suspensions were prepared using well known methods.
(§3) The freshly prepared suspensions were dilluted to final concentrations of 10^4 Colony Forming Units/ml.
(§4) 10 μl of each mould suspensions was inoculated in a spot on the agar plates (in duplo). The plates were incubated for 5 days at 25° C.
(§5) After 5 days of incubation on the control plates containing no natamycin, clear colonies were formed.

[4] = test system: Trichoderma harzianum; experiment: as above; assay type: cell-based; conditions: 5 days at 25° C.
Procedure: as §1, §2, §3, §4, §5

[5] = test system: Dactylium dendroides; experiment: as above; assay type: cell-based; conditions: 5 days at 25° C.
Procedure: as §1, §2, §3, §4, §5

[6] = test system: Verticillium fungicola; experiment: as above; assay type: cell-based; conditions: 5 days at 25° C.
Procedure: as §1, §2, §3, §4, §5

[7] = test system: Agaricus bisporus; assay type: in vivo; conditions: after 3 flushes
Procedure: This example describes the effect of natamycin on the yield of mushrooms. Tubs having an area of 0.26 m^2 were filled with commercially prepared pasteurized mushroom substrate inoculated with spawn (seed) of the commercial button mushroom Agaricus bisporus. Following colonization by the mushroom fungus, the substrate was covered by a layer of peat moss, mixed with limestone (the casing layer) and further incubated under well known standard conditions until mycelial strands were visible on the surface. Fruiting bodies were initiated by manipulating the external environment using methods well known in the industry. 9 tubs were treated five days prior to the first flush by applying an aqueous solution containing 10 ppm of natamycin, as a control 9 tubs were treated the same way however without natamycin. The aqueous solution was applied at a rate of 1.84 liter per square meter and the mushroom beds were allowed to continue growing.

## C[C@@H]1C/C=C/C=C/C=C/C=C/[C@H](O[C@@H]2O[C@H](C)[C@@H](O)[C@H](N)[C@@H]2O)C[C@@H]2O[C@](O)(C[C@@H](O)C[C@H]3O[C@@H]3/C=C/C(=O)O1)C[C@H](O)[C@H]2C(=O)O [natamycin]
[1]
  MIC (Minimal Inhibitory Concentration): less than 20 ppm
[2]
  inhibition of mushroom mycelium: inhibited
[3]; 10 ppm natamycin
  growth on agar plate: no growth
[3]; 20 ppm natamycin
  growth on agar plate: no growth
[4]; 10 ppm natamycin
  growth on agar plate: no growth
[4]; 20 ppm natamycin
  growth on agar plate: no growth
[5]; 10 ppm natamycin
  growth on agar plate: no growth
[5]; 20 ppm natamycin
  growth on agar plate: no growth
[6]; 10 ppm natamycin
  growth on agar plate: only some slight growth
[6]; 20 ppm natamycin
  growth on agar plate: no growth
[7]; 10 ppm natamycin aqueous solution, 1.84 liter per square meter, five days prior to first flush, 9 tubs
  average yield: 3.94 pounds per square feet
[7]; 10 ppm natamycin
  yield compared to the untreated control: statistically significant yield increase

Source: US6655081B1, “Mushrooms” (DSM N.V., priority 1999, dated 2003)
